# Experimental data as given in patent US7208517B1, “Endothelin antagonists” (Abbott Labortories, priority 1994, dated 2007).
# Where two headings read alike, the source gives them in different places.
# Columns and labels:
# ETA Receptor = target: T1, ETA Receptor (Rattus norvegicus, UniProt P26684); experiment: [125I]ET-1 binding to membranes from MMQ cells (ETA receptor binding assay, Table 4); details: test compound at 1 μM, 0.1 nM [125I]ET-1, MMQ cell membranes, 4 hours at 25° C.
# T1 construct: endogenous in cells; host or cells: MMQ rat pituitary cells (membranes)
# T1 sequence (P26684 21-426): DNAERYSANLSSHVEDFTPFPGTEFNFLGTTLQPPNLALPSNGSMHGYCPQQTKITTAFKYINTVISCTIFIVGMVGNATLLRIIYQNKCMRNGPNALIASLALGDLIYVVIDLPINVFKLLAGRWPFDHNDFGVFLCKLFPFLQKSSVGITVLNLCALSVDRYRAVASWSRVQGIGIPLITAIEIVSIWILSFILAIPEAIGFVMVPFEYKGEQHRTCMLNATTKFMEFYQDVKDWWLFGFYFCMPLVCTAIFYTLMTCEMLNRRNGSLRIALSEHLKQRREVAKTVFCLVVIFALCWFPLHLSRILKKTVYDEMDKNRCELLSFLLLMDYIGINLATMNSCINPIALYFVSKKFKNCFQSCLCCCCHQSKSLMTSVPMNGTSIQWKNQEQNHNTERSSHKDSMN
# [1] = system: ET-1-induced phosphatidylinositol hydrolysis in MMQ cells; experiment: Determination of ET-1-induced phosphatidylinositol (PI) hydrolysis in MMQ cells; format: cell-based, rat; details: 1 nM ET-1 challenge, read-out: IC50 (inhibition of ET-induced increase in PI turnover)
# Description: MMQ cells (0.4×10^6 cells/mL) were labeled with 10 μCi/mL of [^3H]myo-inositol in RPMI for 16 hours. The cells were washed with PBS, then incubated with Buffer A containing protease inhibitors and 10 mM LiCl for 60 minutes. The cells were then incubated with test compounds for 5 minutes, and then challenged with 1 nM ET-1. ET-1 challenge was terminated by the addition of 1.5 mL of 1:2 (v/v) chloroform-methanol. Total inositol phosphates were extracted after adding chloroform and water to give final proportions of 1:1:0.9 (v/v/v) chloroform-methanol-water as described by Berridge (Biochem. J. 206 587–595 (1982)). The upper aqueous phase (1 mL) was retained and a small portion (100 μL) was counted. The rest of the aqueous sample was analyzed by batch chromatography using anion-exchange resin AG1-X8 (Bio-Rad). […] The results of the above study clearly indicate that the compounds act as functional ET antagonists.
# [2] = target: T2, ETB receptors of porcine cerebellar tissues (pET-B) (Sus scrofa, UniProt P35463); experiment: ETA/ETB selectivity: (125I)ET-3 competition binding, ETB assay in porcine cerebellum membranes (pET-B); details: porcine cerebellum membranes; 0.1 nM (125I)ET-3; read-out: pET-B IC50
# T2 construct: porcine cerebellar tissues (known to contain ETB receptors); from tissue; host or cells: porcine cerebellum (membranes)
# T2 sequence (P35463 27-443): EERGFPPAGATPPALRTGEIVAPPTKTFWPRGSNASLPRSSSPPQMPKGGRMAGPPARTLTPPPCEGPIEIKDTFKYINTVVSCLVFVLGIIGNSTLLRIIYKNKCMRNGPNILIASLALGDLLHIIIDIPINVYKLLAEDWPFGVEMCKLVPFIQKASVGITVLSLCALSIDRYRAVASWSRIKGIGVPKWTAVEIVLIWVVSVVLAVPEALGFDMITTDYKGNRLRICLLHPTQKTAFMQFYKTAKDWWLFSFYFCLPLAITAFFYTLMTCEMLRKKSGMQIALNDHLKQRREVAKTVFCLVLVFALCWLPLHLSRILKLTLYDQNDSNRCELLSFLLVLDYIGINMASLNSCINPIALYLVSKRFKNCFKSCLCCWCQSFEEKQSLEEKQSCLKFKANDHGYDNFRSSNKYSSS
# Description: (§1) The mixture was centrifuged at 1000×g for 10 min. The supernatant was collected and centrifuged at 60,000×g for 60 min. The precipitate was resuspended in 20 mM Tris, pH 7.4 containing protease inhibitor and centrifuged again. The final membrane pellet was resuspended in 20 mM Tris, pH 7.4 containing protease inhibitors and stored at −80° C. until used. Protein content was determined by the Bio-Rad dye-binding protein assay.
# (§2) Binding assays were performed in 96-well microtiter plates pretreated with 0.1% BSA. […] After incubation, unbound ligands were separated from bound ligands by a vacuum filtration method using glass-fiber filter strips in PHD cell harvesters (Cambridge Technology, Inc., MA), washing the filter strips three times with saline (1 mL). Nonspecific binding was determined in the presence of 1 μM ET-1. IC50 values are calculated using an average of at least two separate determinations.
# [3] = target: T3, ETA receptor in MMQ cells (rET-A) (Rattus norvegicus, UniProt P26684); experiment: ETA/ETB selectivity: (125I)ET-1 competition binding, ETA assay in MMQ cell membranes (rET-A); details: MMQ cell membranes; for IC50: 0.1 nM (125I)ET-1, read-out: rET-A IC50
# T3 construct: endogenous in cells; host or cells: MMQ rat pituitary cells (membranes)
# T3 sequence (P26684 21-426): T1 sequence (P26684 21-426)
# Description: as §1, §2
# human ETA receptor = target: T4, human ETA receptor (Homo sapiens, UniProt P25101); experiment: ETA/ETB selectivity: (125I)ET-1 competition binding, CHO cells transfected with human ETA receptor (hET-A)
# T4 construct: expressed in transfected cells; host or cells: CHO cells, permanently transfected
# T4 sequence (P25101 21-427): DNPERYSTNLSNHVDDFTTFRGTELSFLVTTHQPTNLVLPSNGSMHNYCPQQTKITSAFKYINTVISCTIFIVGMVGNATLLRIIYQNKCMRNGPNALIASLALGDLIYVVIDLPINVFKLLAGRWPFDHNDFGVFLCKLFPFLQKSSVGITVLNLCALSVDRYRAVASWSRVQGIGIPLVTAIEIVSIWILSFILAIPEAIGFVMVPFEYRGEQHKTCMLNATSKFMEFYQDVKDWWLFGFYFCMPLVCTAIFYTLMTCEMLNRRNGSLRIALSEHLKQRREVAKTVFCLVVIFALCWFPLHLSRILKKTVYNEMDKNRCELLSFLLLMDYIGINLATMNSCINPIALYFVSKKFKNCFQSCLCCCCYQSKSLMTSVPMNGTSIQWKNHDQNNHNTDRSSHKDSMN
# Description: as §1, §2
# human ETB receptor = target: T5, human ETB receptor (Homo sapiens, UniProt P24530); experiment: ETA/ETB selectivity: (125I)ET-3 competition binding, CHO cells transfected with human ETB receptor (hET-B)
# T5 construct: expressed in transfected cells; host or cells: CHO cells, permanently transfected
# T5 sequence (P24530 27-442): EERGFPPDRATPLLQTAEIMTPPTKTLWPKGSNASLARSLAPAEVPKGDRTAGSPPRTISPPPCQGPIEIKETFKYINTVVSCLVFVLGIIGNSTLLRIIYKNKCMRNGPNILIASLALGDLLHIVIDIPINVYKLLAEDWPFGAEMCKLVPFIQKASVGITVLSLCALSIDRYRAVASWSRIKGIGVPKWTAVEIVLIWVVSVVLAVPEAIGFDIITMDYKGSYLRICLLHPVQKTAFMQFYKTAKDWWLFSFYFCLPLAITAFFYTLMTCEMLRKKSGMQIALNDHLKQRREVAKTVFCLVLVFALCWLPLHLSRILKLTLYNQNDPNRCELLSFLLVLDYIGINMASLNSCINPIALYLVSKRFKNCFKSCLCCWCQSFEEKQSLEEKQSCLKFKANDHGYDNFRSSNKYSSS
# Description: MMQ cells, porcine cerebellar tissues (known to contain ETB receptors) and chinese hamster ovary cells (CHO) permanently transfected with the human ETA or ETB receptor were homogenized in 25 ml of 10 mM Hepes (pH 7.4) containing 0.25 M sucrose and a protease inhibitor [50 mM EDTA, 0.1 mM PMSF, 5 μg/ml Pepstatin A, and 0.025% Bacitracin] using a micro ultrasonic cell disrupter. The mixture was centrifuged at 1000×g for 10 min. The supernatant was collected and centrifuged at 60,000×g for 60 min. The precipitate was resuspended in 20 mM Tris, pH 7.4 containing protease inhibitor and centrifuged again. The final membrane pellet was resuspended in 20 mM Tris, pH 7.4 containing protease inhibitors and stored at −80° C. until used. Protein content was determined by the Bio-Rad dye-binding protein assay.
# Binding assays were performed in 96-well microtiter plates pretreated with 0.1% BSA. Membranes prepared from cells were diluted 100 fold in Buffer B (20 mM Tris, 100 mM NaCl, 10 mM MgCl2, pH 7.4, with 0.2% BSA, 0.1 mM PMSF, 5 μg/mL Pepstatin A, 0.025% bacitracin, and 50 mM EDTA) to a final concentration of 0.2 mg/mL of protein. In competition binding studies, membranes (0.02 mg) were incubated with 0.1 nM of (^125I)ET-1 (for ETA assay in MMQ or CHO cells transfected with human ETA receptor) or (^125I)ET-3 (for ETB assay in porcine cerebellum or CHO cells transfected with human ETB receptor) in Buffer B (final volume: 0.2 mL) in the presence of increasing concentrations of the test compound for 3 hours at 25° C. After incubation, unbound ligands were separated from bound ligands by a vacuum filtration method using glass-fiber filter strips in PHD cell harvesters (Cambridge Technology, Inc., MA), washing the filter strips three times with saline (1 mL). Nonspecific binding was determined in the presence of 1 μM ET-1. IC50 values are calculated using an average of at least two separate determinations.
# [4] = Determination of plasma protein binding (ultrafiltration, HPLC); format: in vitro ADME; parameters: fraction unbound at 1 h: dose or concentration left out as unconfirmed; details: fresh plasma, 1 hour at room temperature, read-out: percent of bound compound (plasma protein binding, % PB) (converted)
# Description: A stock solution of the test compound in 50% ethanol (2 mg/mL) was diluted 10× into PBS. A 0.4 mL sample of this secondary stock solution was added to 3.6 mL of fresh plasma, and incubated at room temperature for 1 hour. A 1 mL sample of this incubation mixture was transferred to a Centrifree ultrafiltration tube. The sample was centrifuged in a fixed-bucket rotor for approximately 2 min and the filtrate was discarded. The sample was centrifuged for another 15–30 min. A 100 μL sample of the ultrafiltrate was transfered to a micro HPLC sample vial containing […] of HPLC mobile phase and mixed thoroughly. A 50 μL sample was injected and the concentration of drug in the ultrafiltrate was determined by HPLC analysis compared against a standard sample prepared identically in the absence of plasma. Ultrafiltrate concentrations are calculated from a calibration curve. Protein binding is calculated according to the equation: % PB=[1−(Cu/Ci)]*100%
# where Cu is the ultrafiltrate concentration and Ci is the initial plasma concentration.
Compound,% Inhibition of ETA at 1 μM (ETA Receptor),IC50 [1],IC50 [2],further results
"COc1ccc(C2C(C(=O)O)C(c3ccc4c(c3)OCO4)CN2CC(=O)N(C)C2CCCCC2)cc1 (stereo not drawn) [Example 46, trans,trans-2-(4-Methoxyphenyl)-4-(1,3-benzodioxol-5-yl)-1-(N-methyl-N-cyclohexylaminocarbonylmethyl)-pyrrolidine-3-carboxylic acid]",90.4%,2 nM,,
"CCCN(CCC)C(=O)CN1CC(c2ccc3c(c2)OCO3)C(C(=O)O)C1c1ccc(OC)cc1 (stereo not drawn) [Example 47, trans,trans-2-(4-Methoxyphenyl)-4-(1,3-benzodioxol-5-yl)-1-(N,N-di(n-propyl)aminocarbonylmethyl)-pyrrolidine-3-carboxylic acid]",95.1%,0.5 nM,,
"COc1ccc(C2C(C(=O)O)C(c3ccc4c(c3)OCO4)CN2CC(=O)N(C)CC(C)C)cc1 (stereo not drawn) [Example 48, trans,trans-2-(4-Methoxyphenyl)-4-(1,3-benzodioxol-5-yl)-1-(N-methyl-N-isobutylaminocarbonylmethyl)-pyrrolidine-3-carboxylic acid]",96.3%,0.4 nM,,
"CCCCN(C(=O)CN1CC(c2ccc3c(c2)OCO3)C(C(=O)O)C1c1ccc(OC)cc1)c1ccccc1 (stereo not drawn) [Example 291, trans,trans-2-(4-Methoxyphenyl)-4-(1,3-benzodioxol-5-yl)-1-(N-butyl-N-phenylaminocarbonylmethyl)-pyrrolidine-3-carboxylic acid]",100.0%,9.8 nM,,
"CCCN(CCN1CC(c2ccc3c(c2)OCO3)C(C(=O)O)C1c1ccc(OC)cc1)S(=O)(=O)c1ccc(OC(F)(F)F)cc1 (stereo not drawn) [Example 300, trans,trans-2-(4-Methoxyphenyl)-4-(1,3-benzodioxol-5-yl)-1-(2-(N-propyl-N-(4-trifluoromethoxybenzenesulfonyl)amino)ethyl)-pyrrolidine-3-carboxylic acid]",96.1%,1.2 nM,,
CCCCCS(=O)(=O)N(CCC)CCN1C[C@H](c2ccc3c(c2)OCO3)[C@@H](C(=O)O)[C@@H]1c1ccc(OC)c(F)c1 [Example 534],,,0.36 nM,IC50 ([1]; Rattus norvegicus): 50 nM
CC=CC(C)(C)CC1C(C(=O)O)C(c2cc(OC)c3c(c2)OCO3)CN1CC(=O)N(CCCC)CCCC (stereo not shown) [Example 553],,,42400 nM,IC50 ([1]; Rattus norvegicus): 0.4 nM; inhibition at 1 µM ([3]; 1 μM test compound): 100%; IC50 [3]: 0.26 nM; IC50 (human ETA receptor): 0.29 nM; IC50 (human ETB receptor): 39500 nM
CCCCN(C(=O)CN1CC(c2ccc3c(c2)OCO3)C(C(=O)O)C1c1ccc(OC)cc1)c1cccc(CN)c1 (stereo not shown) [compound 532],,,3200 nM,inhibition at 1 µM (ETA Receptor; read-out: % Inhibition of ETA at 1 μM): 100%; IC50 [3]: 5.1 nM; fraction unbound at 1 h [4]: 0.032
